Molecular target: bovine serum albumin (Bos taurus, UniProt P02769)
Assay: binding kinetics of EB-TATE and bovine serum albumin
Conditions: unlabeled EB-TATE

Chain of bovine serum albumin (P02769 25-607): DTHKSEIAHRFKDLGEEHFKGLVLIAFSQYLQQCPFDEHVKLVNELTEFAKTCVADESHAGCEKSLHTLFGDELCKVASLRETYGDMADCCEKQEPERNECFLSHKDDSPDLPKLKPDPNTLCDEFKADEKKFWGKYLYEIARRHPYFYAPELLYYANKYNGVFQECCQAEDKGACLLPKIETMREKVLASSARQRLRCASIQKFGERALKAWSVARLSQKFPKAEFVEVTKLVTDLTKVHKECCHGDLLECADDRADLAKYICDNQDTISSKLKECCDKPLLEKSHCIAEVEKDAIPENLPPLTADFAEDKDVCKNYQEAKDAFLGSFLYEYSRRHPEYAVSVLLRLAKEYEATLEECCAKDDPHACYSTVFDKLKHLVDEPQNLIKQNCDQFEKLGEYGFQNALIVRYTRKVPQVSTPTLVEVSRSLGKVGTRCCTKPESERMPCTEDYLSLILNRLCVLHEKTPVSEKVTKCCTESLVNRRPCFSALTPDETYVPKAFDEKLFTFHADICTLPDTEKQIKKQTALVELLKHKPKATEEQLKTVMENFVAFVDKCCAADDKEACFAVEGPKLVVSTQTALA

Cc1cc(-c2ccc(NC(=O)[C@@H](CCCCNC(=O)CCN3C(=O)CC(SCCC(=O)N[C@H](Cc4ccccc4)C(=O)N[C@H]4CSSCC(C(=O)NC(C(=O)O)[C@@H](C)O)NC(=O)[C@H]([C@@H](C)O)NC(=O)[C@H](CCCCN)NC(=O)[C@@H](Cc5c[nH]c6ccccc56)NC(=O)[C@H](Cc5ccccc5)NC4=O)C3=O)NC(=O)CN3CCN(CC(=O)O)CCN(CC(=O)O)CCN(CC(=O)O)CC3)c(C)c2)ccc1N=Nc1ccc2c(S(=O)(=O)O)cc(S(=O)(=O)O)c(N)c2c1O (some centres unmarked) [EB-TATE] was tested, and the “Kd, affinity to bovine serum albumin” value was “μM Kd affinity” and the “Kon and Koff, bovine serum albumin” value was “high Kon and low Koff”.
